Reference: patent US9029393B2, “Adenosine receptor ligands and uses thereof” (Kaldi Pharma, SAS, priority 2009, dated 2015)

Tests used:
[1] = molecular target: hA2A receptor (Homo sapiens (Human), UniProt P29274); experiment: A2A FRET-based binding assay; settings: HEK GFP-A2A stable cell line, dyed CGS15943-derived probe
Description: Assay protocol: Compounds were evaluated on an in-vitro binding assay developed based on the technology described in the patent WO 98/55873. This assay was developed from hA2A receptor that was fused at its amino terminal domain to Green Fluorescent Protein (GFP) and stably expressed in HEK cells. The probe used is a dyed ligand derived from the non-selective CGS15943. For the FRET-binding experiment, HEK GFP-A2A stable cell line was seeded onto poly-D-lysine precoated black-walled 96-well plates in normal growth media (0.7 10^5 cells per well). After 24 hours of culture at 37° C., the cell media was removed and cells were washed. The tested compounds were applied on cells by the FLIPR^TETRA® (Molecular Devices®) and incubated for 10 minutes prior to addition of the dyed probe. When a drug interacts with the receptor, the FRET signal measured by the variation of GFP fluorescence at 510 nm is disrupted. The time curves of ligand binding were recorded during 1000 seconds. (excitation Light Emitting Diode 470-495 nm, emission 510+/−10 nm). The percentage of inhibition allows the evaluation of the inhibitory activity of compounds in comparison to the antagonist A2A reference CGS15943. The dose-inhibition curves were fitted with variable slope, using GraphPad® Prism software, in order to determine […] and Ki values. The dose-inhibition experiments were all performed in duplicate, three times independently.

[2] = molecular target: human A2A receptor (Homo sapiens, UniProt P29274); experiment: A2A-antagonist Ca++ functional assay (CGS21680 at EC80); type: cell-based; settings: HEK cells expressing GFP-hA2A and Gα15, inhibition of CGS21680 (EC80)-induced Ca2+ increase
Description: Assay protocol: HEK cells stably expressing the human A2A receptor fused at its amino terminal domain to GFP, and cultured in Modified Eagle's Medium supplemented with 10% FCS, were transiently transfected by electroporation with plasmid DNA encoding the promiscuous G protein Gα15 in order to deviate the natural coupling of the receptor from AMPc production to calcium (Ca^2+) release pathway (Brabet et al., Neuropharmacology 37:1043-1051, 1998). Receptor activity was detected by changes in intracellular Ca^2+, measured using the fluorescent Ca^2+ sensitive dye, Fluo4AM (Molecular Probes®).
Cells were plated after transfection onto polyornithine coated, clear bottom, black-walled, 96-well plates and cultured for 24 hours. The day of the test, cells were washed with freshly prepared buffer B (HBSS 1×, Hepes 20 mM, MgSO4.7H2O 1 mM, Na2CO3 3.3 mM, CaCl2-2H2O 1.3 mM, 0.5% BSA, Probenecid 2.5 mM) and loaded at 37° C. in 5% CO2 for 1.5 hours with buffer B containing 1 μM Fluo4AM and 0.1 mg/mL Pluronic Acid. Afterwards cells were washed twice with buffer B and 50 μL of this buffer were added to each well. The tested compounds were incubated […] before addition of CGS21680 (used as reference agonist) at a concentration leading to 80% of its maximal activity (EC80). Afterwards, the intracellular Ca^2+ measurements were performed on a 60s kinetic by detection of the fluorescence intensity (excitation 485 nm, emission 525 nm) using the fluorescence microplate reader FlexStation® (Molecular Devices®). All data reflect three independent experiments. Dose-response curves were fitted by using the sigmoidal dose-response (variable slope) analyze in GraphPad Prism® program (San Diego) and IC50 of antagonist compound was calculated. Dose-response experiments were all performed in triplicate, three times independently.

[3] = test system: haloperidol-induced catalepsy; experiment: Haloperidol-induced catalepsy model in the mouse (bar test); type: in vivo

hA2A receptor, sequence (P29274 whole entry, the tested form may be a part): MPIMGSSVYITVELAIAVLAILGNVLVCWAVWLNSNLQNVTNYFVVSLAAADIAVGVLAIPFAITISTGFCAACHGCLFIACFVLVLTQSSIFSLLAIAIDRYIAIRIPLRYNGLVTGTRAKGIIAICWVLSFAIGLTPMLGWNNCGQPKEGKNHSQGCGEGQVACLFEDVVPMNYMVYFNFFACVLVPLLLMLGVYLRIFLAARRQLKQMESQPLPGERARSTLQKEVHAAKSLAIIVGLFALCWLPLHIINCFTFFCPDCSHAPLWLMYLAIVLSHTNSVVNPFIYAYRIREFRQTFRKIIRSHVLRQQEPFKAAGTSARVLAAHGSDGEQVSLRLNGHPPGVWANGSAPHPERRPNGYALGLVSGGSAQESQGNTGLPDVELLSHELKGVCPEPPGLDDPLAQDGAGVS

| Ki [1] | IC50 [2] | melting point | SMILES | anti-cataleptic effect ([3]; 1 mg/kg i.p. 120 minutes after haloperidol, FIG. 1) | anti-cataleptic effect ([3]; 30 mg/kg i.p. 120 minutes after haloperidol, FIG. 1) | anti-cataleptic effect ([3]; 1, 3, 30 and 100 mg/kg i.p. 120 minutes after haloperidol (1 mg/kg i.p.), FIG. 1) | anti-cataleptic effect ([3]; 10 and 30 mg/kg per os 120 minutes after haloperidol, FIG. 2) |
| --- | --- | --- | --- | --- | --- | --- | --- |
| 12 ± 6 nM | 195 ± 100 nM | 165 to 169 °C | O=C(c1ccc(C(=O)N2CCCCCC2)cc1)c1cnc2ccc(F)cn12 [Example 14, [4-(Azepane-1-carbonyl)-phenyl]-(6-fluoro-imidazo[1,2-a]pyridin-3-yl)-methanone] | no anticataleptic activity | the most important catalepsy reversion | significant anti-cataleptic effect in a dose-dependent manner | significant anti-cataleptic effect in a dose-dependent manner |
| 103 ± 52 nM | 992 ± 11 nM | 141 to 152 °C | Nc1cc(C(=O)N2CCCCCC2)ccc1C(=O)c1cnc2ccc(F)cn12 [Example 30, [2-Amino-4-(azepane-1-carbonyl)-phenyl]-(6-fluoro-imidazo[1,2-a]pyridin-3-yl)-methanone] | – | – | – | – |
| 171 ± 70 nM | 1830 ± 122 nM | 169 to 175 °C | O=C(c1ccc(C(=O)N2CCCc3ccccc32)cc1)c1cnc2ccccn12 [Example 71, [4-(3,4-Dihydro-2H-quinoline-1-carbonyl)-phenyl]-imidazo[1,2-a]pyridin-3-yl-methanone] | – | – | – | – |
| 4 ± 1 nM | 46 ± 3 nM | 218 to 219 °C | O=C(c1ccc2c(-c3cnc4ccc(F)cn34)noc2c1)N1CCCCCC1 [Example 113, Azepan-1-yl-[3-(6-fluoro-imidazo[1,2-a]pyridin-3-yl)-benzo[d]isoxazol-6-yl]-methanone] | – | – | – | – |
| 72 ± 10 nM | 326 ± 47 nM | 160 to 166 °C | O=C(c1ccc2c(c1)nnn2-c1cnc2ccc(F)cn12)N1CCCCCC1 [Example 132, 5-(Azepan-1-ylcarbonyl)-1-(6-fluoroimidazo[1,2-a]pyridin-3-yl)-1H-1,2,3-benzotriazole] | – | – | – | – |
